Patent US12589086B2, “Compositions and methods for the treatment of primary biliary cholangitis” (Genfit, priority 2020, dated 2026)

Tested on: patients with PBC
Test: phase II study of elafibranor for the treatment of PBC (serum ALP, 12 weeks)
Type: in vivo, human
Conditions: for treatment effect estimate vs placebo, relative change in serum ALP (supportive analysis): ANCOVA with baseline ALP as covariate; for treatment effect estimate vs placebo, relative change in serum ALP (primary efficacy analysis): non-parametric randomization-based ANCOVA with baseline ALP as covariate, p<0.001; for mean relative change (%) from baseline to Endpoint in serum ALP: placebo 3.2%
Experimental: Elafibranor (2-(2,6-dimethyl-4-{3 [4-(methylsulfanyl)phenyl]-3-oxopropen-1-yl}phenoxy)-2-methylpropanoic acid) is a drug currently tested in a pivotal phase III study for the treatment of PBC. Elafibranor was also evaluated in a phase II study for the treatment of PBC. […] Elafibranor (2-(2,6-dimethyl-4-{3-[4-(methylsulfanyl)phenyl]-3-oxopropen-1-yl}phenoxy)-2-methylpropanoic acid) was supplied as 80 mg white to offwhite round coated tablets with no printed inscription. A placebo tablet (of the same size as the corresponding active tablet) to match elafibranor 80 mg was provided as a white to off-white round coated tablet with no printed inscription. The placebo tablet contained the same excipients as the active formulation as well as lactose monohydrate (which was used in place of the active ingredient). […] The treatment effect estimate was −52.0% (95% Cl [−62.5; −41.5]) for the elafibranor 80 mg treatment group and −43.9% (95% Cl [−55.7; −32.1]) for the elafibranor 120 mg treatment group (FIG. 1). The primary efficacy supportive analysis conducted using an ANCOVA with baseline ALP as a covariate was consistent with the primary efficacy analysis. The treatment effect estimate was −51.4% (95% Cl [−63.3; −39.5]) for the elafibranor 80 mg treatment group and −43.9% (95% Cl [−55.8; −31.9]) for the elafibranor 120 mg treatment group (FIG. 1).

CSc1ccc(C(=O)C=Cc2cc(C)c(OC(C)(C)C(=O)O)c(C)c2)cc1 [elafibranor, 2-(2,6-dimethyl-4-{3-[4-(methylsulfanyl)phenyl]-3-oxopropen-1-yl}phenoxy)-2-methylpropanoic acid]
absolute change from baseline in serum ALP vs placebo at Endpoint (80 mg (p<0.001) and 120 mg treatment groups): statistically significantly different from placebo
relative change from baseline in serum ALP vs placebo at Endpoint (80 mg and 120 mg treatment groups): statistically significantly different from placebo
mean ALP values from baseline through Week 12 (80 mg and 120 mg treatment groups, FIG. 2): declining mean ALP values
mean relative changes (%) in ALP values from baseline through Week 12 (80 mg and 120 mg treatment groups, beginning at Week 2 up through Week 12, FIG. 3): decrease in ALP values over time
treatment effect estimate vs placebo, relative change in serum ALP (supportive analysis) (80 mg, 95% CI [−63.3, −39.5]): −51.4%
treatment effect estimate vs placebo, relative change in serum ALP (primary efficacy analysis) (80 mg, 95% CI [−62.5, −41.5]): −52.0%
treatment effect estimate vs placebo, relative change in serum ALP (supportive analysis) (120 mg, 95% CI [−55.8, −31.9]): −43.9%
treatment effect estimate vs placebo, relative change in serum ALP (primary efficacy analysis) (120 mg, 95% CI [−55.7, −32.1]): −43.9%
reduction in plasma ALP levels from baseline compared to placebo (PBC patients): consistent, statistically significant reduction
mean relative change (%) from baseline to Endpoint in serum ALP (elafibranor 80 mg treatment group, PBC patients): −48.3%
mean relative change (%) from baseline to Endpoint in serum ALP (elafibranor 120 mg treatment group, PBC patients): −40.6%
safety and tolerability in patients (in vivo): safe and well-tolerated
